# Reference: publication PMC5789083, “Mechanisms driving the antibacterial and antibiofilm properties of Hp1404 and its analogue peptides against multidrug-resistant Pseudomonas aeruginosa” (Scientific Reports, 2018)
# Where no end group is shown, it is not given here.
# Tests used:
# trypsin = test: Trypsin stability assay; format: in vitro ADME; details: trypsin (25 nM) in sodium phosphate buffer, 20 µg peptide in 100 µL 10 mM sodium phosphate buffer pH 7.4 with 25 nM trypsin, 37 °C, RP-HPLC peak area of native peptide (C18), repeated three times, read-out: remaining peptide after trypsin treatment
# Experimental: Each sample with trypsin was analysed by RT-HPLC on a Jupiter C18 column (4.6 × 250 mm, 300 Å, 5 µm; Phenomenex). Stability was expressed as the percentage of remaining peptide, which in turn was determined by comparing the HPLC peak areas, corresponding to the peak detected for the native peptide, before and after trypsin treatment. […]
# (§1) released calcein was measured at an excitation wavelength of 480 nm and an emission […]
# Trypsin stability assay. Peptides were treated with trypsin, and results were ev aluated usin g RP-HP LC, as described previously3. Briefly, 20 µ g of peptide was mixed with 100 µ L of 10 mM sodium phosphate buffer (pH 7.4) containing 25 nM trypsin (Sigma-Aldrich), and incubated at 37 °C for 1 h or 2 h. A fter incubation, 20 µL of each sampl e was anal ysed b y RT-HP LC on a J upiter C18 column (4.6 × 250 m m, 300 Å, 5 µm; Phenomenex).
# (§2) PI uptake assay. Bacteri al membrane damage was assessed through monitoring the changes in fluorescence generated by the propidium iodide (P I) dye, as described previousl y4. Briefl y, P. aeruginosa ATCC 27853 was grown in NB to logarithmic phase of growth, and then diluted to OD600 = 0.25 in 10 mM sodium phosphate (pH 7.2) buffer with 10 % medium. […] PI fluorescence was monitored at an excitation wavelength of 580 nm and emission wavelength of 620 nm, using a micropl ate reader (Molecular Devices Co., Sunnyvale, CA, USA), during 30 min.
# mouse red blood cells = test: Hemolytic activity; format: cell-based; details: 8% mouse RBCs in PBS, 37 °C, 1 h, A414, triplicate
# Experimental: The hemolytic activities of the peptides were determined as previously described. Fresh mouse red blood cells (RBCs) were washed and diluted to 8% with PBS. RBC suspension was added to 96-well plates (100 µL/well), mixed with an equal volume of serially diluted peptides, and incubated at 37 °C for 1 h with gentle shaking. The plate was centrifuged and the supernatant was transferred to a 96-well plate. The absorbance at 414 nm was measured with a Versa-Max ELISA reader (Molecular Devices). PBS and 0.1% Triton X-100 were used as negative and positive controls, respectively. The experiment was performed in triplicate. The hemolysis rate was calculated using the following formula[55]: % Hemolysis = [(Abs 414 nm in the peptide solution-Abs 414 nm in PBS)/(Abs 414 nm in 0.1% Triton X-100-Abs 414 nm in PBS)] × 100
# mammalian cells = details: at concentrations below 50 µM; cited from earlier work
# Experimental: In a previous study, Hp1404 was purified from the venomous gland of the scorpion Heterometrus petersii. […] Moreover, it is not toxic to mammalian cells at concentrations below 50 µM[20].
# P. aeruginosa ATCC 27853 = test: Time-killing assay; format: cell-based, Pseudomonas aeruginosa; details: at 2 hours; 2× MIC, P. aeruginosa ATCC 27853, 2 × 10^5 CFU/mL, colony counts in triplicate
# Description: Peptide synthesis and purification. The peptides were s ynthesized using the solid- phase-9-fluorenylmethoxycarbonyl (Fmoc) method, as reported previously1, on a Rink amide 4-methylbenzhydrylamine resin, using a Liberty microwave peptide synthesizer (CEM, Matthews, NY, USA). The following chemicals were us ed as linkage reagents: 0.45 M 2- (1H - benzotriazole-1- yil)-1,1,3,3- tetramethyluronium hexafluorophosphate (HBTU) diluted in dimethylformamide (DMF), 0.1 M N -hydroxybenzotriazole (HOBt) diluted in piperidine/DMF, and 2 M N ,N -diisopropyleth ylamine (DIEA) diluted in N -methylp yrrolidone (NMP). After washing with dichloromethane (DCM), cleavage was performed by incubating for 2 h at 25 °C in a trifluoroacetic acid (TFA) solution containing water, phenol, and triisopropylsilane. The crude peptide was precipitated by dilution with ice-cold diethyl ether, then spread on the tube wall, and dried. After resuspension in 25 °C water, the peptide was purified by reversed phase high- performance liquid chromatograph y (RP-HP LC) on a Jupiter C18 column (4.6 × 250 mm, 300 Å, 5 µm; Phenomenex, Torrance, CA, USA). […]
# (§3) Ti me -killing assay. […] After an 18- h incubation, the colonies were counted and aver age counts wer e determined.
# (§4) Calcein leakage assay. […] The fluorescence generated from the […]
# [1] = Calcein leakage assay, PC:CH:SM LUVs; details: PC:CH:SM (1:1:1, w/w) LUVs mimicking mammalian cell membranes (Fig. S4)
# Description: Peptide synthesis and purification. The peptides were s ynthesized using the solid- phase-9-fluorenylmethoxycarbonyl (Fmoc) method, as reported previously1, on a Rink amide 4-methylbenzhydrylamine resin, using a Liberty microwave peptide synthesizer (CEM, Matthews, NY, USA). The following chemicals were us ed as linkage reagents: 0.45 M 2- (1H - benzotriazole-1- yil)-1,1,3,3- tetramethyluronium hexafluorophosphate (HBTU) diluted in dimethylformamide (DMF), 0.1 M N -hydroxybenzotriazole (HOBt) diluted in piperidine/DMF, and 2 M N ,N -diisopropyleth ylamine (DIEA) diluted in N -methylp yrrolidone (NMP). […]
# as §3, §4, §1
# as §2, with “y4.” for “y4. Briefl y, P. aeruginosa ATCC 27853 was grown in NB to logarithmic phase of growth, and then diluted to OD600 = 0.25 in 10 mM sodium phosphate (pH 7.2) buffer with 10 % medium.”
Substance,"remaining at 2 h, 0.2 mg/mL (trypsin)",hemolysis rate (mouse red blood cells; 12.5 µM),hemolysis rate (mouse red blood cells; 25 µM),hemolysis rate (mouse red blood cells; 50 µM),hemolysis rate (mouse red blood cells; 100 µM),hemolysis rate (mouse red blood cells; 200 µM),toxicity to mammalian cells (mammalian cells),bacteria killed (P. aeruginosa ATCC 27853),toxicity by calcein leakage assay [1]
GILGKLWEGVKSIF-NH2 [Hp1404],50%,2%,11%,55%,92%,100%,not toxic,,
ILKKLLKKVKKI-NH2 [Hp1404-T1e],,,,,,,,85%,not toxic
